Reference: PubChem BioAssay AID1963827 (Molecular Pharmacology Branch, DTP, NCI, 2024)
Several values for one entry are separate records, joined by “and”; a condition that tells them apart may be missing. Equal values may be shown once.

System: 994946-033-R-J1-PDC complex spheroid viability
Assay: Anticancer human tumor 994946-033-R-J1-PDC patient-derived melanoma cell line growth inhibition [POLQ]
Conditions: for viability, T/C: stronger effect = lower value
Method: Multicellular complex tumor spheroid response to Polymerase (POL) inhibitors (novobiocin, ART-558, RP6685) in combination with a variety of drugs and investigational agents in selected tumor cell lines
The POL inhibitors (novobiocin, ART-558, and RP6685) were evaluated both individually and in combination with standard of care and investigational anticancer small molecules within a complex spheroid model of solid tumors. . Complex spheroids include a stromal component modeled by human endothelial cells (HUVEC) and fibroblasts modeled by human mesenchymal stem cells (MSCs). The concentration ranges selected for each drug and investigational agent were based upon clinically achievable concentrations if the clinical Cmax of the agent was known.
Compounds. The drugs and investigational agents: novobiocin (NSC847541), ART-558 (NSC835418), RP-6685 (NSC848927), peposertib (NSC802822), ceralasertib (NSC780249), elimusertib (NSC800525), camonsertib (NSC841442), AZD-1390 (NSC803789), olaparib (NSC753686), talazoparib (NSC767125), rucaparib (NSC756644), sotorasib (NSC818433), MRTX-1133 (NSC836407), SN-38 (NSC673596), topotecan (NSC609699), epotoside (NSC141540), doxorubicin (NSC123127), gemcitabine (NSC613327), 5-fluorouracil (NSC19893), paclitaxel (NSC125973), vemurafenib (NSC761431), MSA-2 (NSC828583), SN-011 (NSC837082), adavosertib (NSC754352), prexasertib (NSC758257), carboplatin (NSC241240) and oxaliplatin (NSC266046), were obtained from the National Cancer Institute (NCI) Developmental Therapeutics Program Chemical Repository (21). The FDA-approved anticancer drug set is available from the Developmental Therapeutics Program at https://dtp.cancer.gov/organization/dscb/obtaining/. […] The stock solutions were prepared in dimethyl sulfoxide (DMSO, Sigma-Aldrich, St. Louis, MO, cat. D2650), except for the platinum compounds which were prepared in saline (Quality Biological, Gaithersburg, MD, cat. 114-055-101), at 800-fold the tested concentration and stored at -70 degrees C prior to their use. All drugs and investigational agents were tested over a range starting from a high concentration at or near the clinical Cmax and decreasing in half-log increments. If the clinical Cmax for an agent had not been determined, the highest concentration tested was 10 microM, except for SN-38, which was tested at a high concentration of 1 microM.
Cell Culture. All cells were maintained in an incubator at 37 degrees C and 5% CO2 with 95% humidity. The PDC lines were cultured according to standard operating procedures established by the NCI PDMR (https://pdmr.cancer.gov). Table 3 of the manuscript, lists the cell lines along with the number of the three cell types plated to form the mct-spheroids and media for tumor cell growth. After thawing, all PDC lines, except 997537-175-T-J1-PDC and 415267-285-R-J2-PDC, were cultured in Matrigel-coated flasks prepared with a working solution of 1X Ham's F-12 nutrient mix, without supplementation (Thermo Fisher Scientific, cat. 11765054), 100 U/mL penicillin-streptomycin (Thermo Fisher Scientific, cat. 15140122), and 2.5% Matrigel (Corning Inc., Corning, NY, cat. 354248) for the first three passages. The two PDC lines 997537-175-T-J1-PDC and 415267-285-R-J2-PDC were cultured on uncoated flasks. The 857933-349-R-J2-PDC line was cultured in 6C/Colon 1B media containing advanced DMEM/F-12 (Thermo Fisher Scientific, cat. 12634028), 10 mM HEPES (Thermo Fisher Scientific, cat. 15630080), 1X GlutaMAX supplement (Thermo Fisher Scientific, cat. 35050061), 0.1 mg/mL primocin (InvivoGen, San Diego, CA, cat. ant-pm-2), 10% defined fetal bovine serum, heat inactivated (HyClone Laboratories Inc., Logan, UT, cat. SH30070.03HI), 50% L-WRN conditioned media (ATCC, cat. CRL-3276), 1.25 mM N-Acetyl-L-cysteine (Sigma-Aldrich, cat. A9165), 10 mM nicotinamide (Sigma-Aldrich, cat. N0636), 1X B-27 supplement (Thermo Fisher Scientific, cat. 17504044), 1X N-2 supplement (Thermo Fisher Scientific, cat. […]
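Also: spheroids exposed to drugs for 7 days.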
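For viability, T/C in this document: 100% = DMSO vehicle treated spheroids.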

**Q.** Which viability, T/C (compound 0.0316 µM) does the source give for `Nc1ccn(C2OC(CO)C(O)C2(F)F)c(=O)n1` (configuration not stated) here?
**A.** 26% and 34.1% and 24.7%

**Q.** What about the viability, T/C (compound 0.1 µM) of the same compound?
**A.** 4.77% and 7.08% and 7.51%

**Q.** What about the viability, T/C (compound 0.316 µM) of the same compound?
**A.** 5.46% and 6.51% and 7.23%

**Q.** And the viability, T/C (compound 1 µM)?
**A.** 6.12% and 6.87% and 8.28%

**Q.** What about the viability, T/C (compound 3.16 µM) of the same compound?
**A.** 4.43% and 9.96% and 4.73%

**Q.** And the viability, T/C (compound 10 µM)?
**A.** 1.87% and 3.82% and 1.78%

**Q.** And the IC50 (curve of compound)?
**A.** < 0.0316 µM

**Q.** Which IC50 (compound alone, run of 10/31/2023) does the source give for `COC1C(OC(N)=O)C(O)C(Oc2ccc3c(O)c(NC(=O)c4ccc(O)c(CC=C(C)C)c4)c(=O)oc3c2C)OC1(C)C` (configuration not stated) here?
**A.** > 10 µM

**Q.** Which viability, T/C (compound 0.00316 µM) does the source give for `C=CCn1c(=O)c2cnc(Nc3ccc(N4CCN(C)CC4)cc3)nc2n1-c1cccc(C(C)(C)O)n1` here?
**A.** 106% and 121% and 99.1%

**Q.** And the viability, T/C (compound 0.01 µM)?
**A.** 109% and 114% and 99.8%

**Q.** And the viability, T/C (compound 0.0316 µM)?
**A.** 113% and 106% and 123%

**Q.** What about the viability, T/C (compound 0.1 µM) of the same compound?
**A.** 105% and 97.1% and 72.5%

**Q.** And the viability, T/C (compound 0.316 µM)?
**A.** 97.5% and 68.8% and 88.4%

**Q.** What about the viability, T/C (compound 1 µM) of the same compound?
**A.** 27.4% and 34.9% and 30.9%

**Q.** What about the IC50 (curve of compound) of the same compound?
**A.** 0.691 µM and 0.608 µM and 0.651 µM

**Q.** Which IC50 (curve of first compound, second compound 0.0316 µM) does the source give for `CCc1cc2c(N3CCc4c(cc(Cn5ccnc5)cc4-c4cn(C)nc4C(F)(F)F)C3=O)ccnc2c(OC)n1` + Nc1ccc(C#CCN(C(=O)Cc2ncc(C(F)(F)F)cc2C(F)(F)F)c2ccc(F)cc2)nn1 here?
**A.** > 10 µM

**Q.** And the IC50 (curve of first compound, second compound 0.1 µM)?
**A.** > 10 µM

**Q.** What about the IC50 (curve of first compound, second compound 0.316 µM) of the same compound?
**A.** > 10 µM

**Q.** And the IC50 (curve of first compound, second compound 1 µM)?
**A.** > 10 µM

**Q.** And the IC50 (curve of first compound, second compound 3.16 µM)?
**A.** > 10 µM

**Q.** What about the IC50 (curve of first compound, second compound 10 µM) of the same compound?
**A.** > 10 µM

**Q.** And the viability, T/C (second compound 0.0316 µM, first compound 0.0316 µM)?
**A.** 51.5%

**Q.** And the viability, T/C (second compound 0.0316 µM, first compound 0.1 µM)?
**A.** 79.4%

**Q.** And the viability, T/C (second compound 0.0316 µM, first compound 0.316 µM)?
**A.** 82%

**Q.** What about the viability, T/C (second compound 0.0316 µM, first compound 1 µM) of the same compound?
**A.** 88.2%

**Q.** And the viability, T/C (second compound 0.0316 µM, first compound 3.16 µM)?
**A.** 79.6%

**Q.** And the viability, T/C (second compound 0.0316 µM, first compound 10 µM)?
**A.** 79%

**Q.** And the viability, T/C (second compound 0.1 µM, first compound 0.0316 µM)?
**A.** 101%

**Q.** What about the viability, T/C (second compound 0.1 µM, first compound 0.1 µM) of the same compound?
**A.** 87.7%

**Q.** And the viability, T/C (second compound 0.1 µM, first compound 0.316 µM)?
**A.** 88.6%

**Q.** What about the viability, T/C (second compound 0.1 µM, first compound 1 µM) of the same compound?
**A.** 76.8%

**Q.** What about the viability, T/C (second compound 0.1 µM, first compound 3.16 µM) of the same compound?
**A.** 73.8%

**Q.** What about the viability, T/C (second compound 0.1 µM, first compound 10 µM) of the same compound?
**A.** 81.4%

**Q.** What about the viability, T/C (second compound 0.316 µM, first compound 0.0316 µM) of the same compound?
**A.** 89.3%

**Q.** What about the viability, T/C (second compound 0.316 µM, first compound 0.1 µM) of the same compound?
**A.** 97.6%

**Q.** And the viability, T/C (second compound 0.316 µM, first compound 0.316 µM)?
**A.** 78.4%

**Q.** And the viability, T/C (second compound 0.316 µM, first compound 1 µM)?
**A.** 70.6%

**Q.** And the viability, T/C (second compound 0.316 µM, first compound 3.16 µM)?
**A.** 79.8%

**Q.** And the viability, T/C (second compound 0.316 µM, first compound 10 µM)?
**A.** 63.9%

**Q.** And the viability, T/C (second compound 1 µM, first compound 0.0316 µM)?
**A.** 98.9%

**Q.** And the viability, T/C (second compound 1 µM, first compound 0.1 µM)?
**A.** 62.2%

**Q.** And the viability, T/C (second compound 1 µM, first compound 0.316 µM)?
**A.** 85.1%

**Q.** What about the viability, T/C (second compound 1 µM, first compound 1 µM) of the same compound?
**A.** 75%

**Q.** And the viability, T/C (second compound 1 µM, first compound 3.16 µM)?
**A.** 86.7%

**Q.** What about the viability, T/C (second compound 1 µM, first compound 10 µM) of the same compound?
**A.** 87.4%

**Q.** What about the viability, T/C (second compound 3.16 µM, first compound 0.0316 µM) of the same compound?
**A.** 75.9%

**Q.** And the viability, T/C (second compound 3.16 µM, first compound 0.1 µM)?
**A.** 78%

**Q.** What about the viability, T/C (second compound 3.16 µM, first compound 0.316 µM) of the same compound?
**A.** 66.9%

**Q.** And the viability, T/C (second compound 3.16 µM, first compound 1 µM)?
**A.** 79.4%

**Q.** And the viability, T/C (second compound 3.16 µM, first compound 3.16 µM)?
**A.** 89.2%

**Q.** What about the viability, T/C (second compound 3.16 µM, first compound 10 µM) of the same compound?
**A.** 66.7%

**Q.** What about the viability, T/C (second compound 10 µM, first compound 0.0316 µM) of the same compound?
**A.** 101%

**Q.** What about the viability, T/C (second compound 10 µM, first compound 0.1 µM) of the same compound?
**A.** 98.2%

**Q.** What about the viability, T/C (second compound 10 µM, first compound 0.316 µM) of the same compound?
**A.** 102%

**Q.** And the viability, T/C (second compound 10 µM, first compound 1 µM)?
**A.** 89.8%

**Q.** And the viability, T/C (second compound 10 µM, first compound 3.16 µM)?
**A.** 80.8%

**Q.** What about the viability, T/C (second compound 10 µM, first compound 10 µM) of the same compound?
**A.** 70.8%
